We go through 59 compounds from the RepoRT retention time repository (doi:10.1016/j.talanta.2015.03.003).

This data set is described as follows: RP, Merck Supelco Ascentis Express C18, 150 × 2.1 mm, 2.7 µm, 55 °C, 0.26 mL/min, estimated dead time 1.3 min; A: 60% water + 40% acetonitrile + 0.1% formic acid + 10 mM ammonium formate; B: 10% acetonitrile + 90% isopropanol + 0.1% formic acid + 10 mM ammonium formate; gradient (min/%B) 0/32 1.5/32 4/45 5/52 8/58 11/66 14/70 18/75 21/97 25/97 25.1/32 30/32. Conditions: stereoisomer not certain.

Consider `CCCCCCCCC=CCCCCCCCC(=O)O` [oleic_acid], for which the LC retention time was 10.3 min.

As to `CCCCCCCCCCCCCCCC(=O)O` [palmitic_acid], the LC retention time is 9.9 min.

For `CCCCCCCCCCCCCCCCCCCCCC(=O)O` [BehenicAcid], the LC retention time is 15.8 min.

As to `CCCCCCCCCCCCCCCC(=O)OC(CC(=O)[O-])C[N+](C)(C)C` (centres undefined) [C16-CAR], the LC retention time is 5.4 min.

Regarding `CC(CCC(=O)O)C1CCC2C3C(O)C(O)C4CC(O)CCC4(C)C3CCC12C` (centres undefined) [MCA], the LC retention time was 1.9 min.

As for `CCC(C=CC(C)C1CCC2C3CC=C4CC(O)CCC4(C)C3CCC12C)C(C)C` (centres undefined) [stigmasterol], the LC retention time is 16 min.

As for `CCCCCCCCCCCCCCCCCCCCCCCC(=O)O` [lignoceric acid], the LC retention time was 17.8 min.

Consider `CCC(CCC(C)C1CCC2C3CC=C4CC(O)CCC4(C)C3CCC12C)C(C)C` (centres undefined) [BSitosterol], for which the LC retention time is 16.6 min.

Turning to `CCCCCCCCC=CCCCCCCCC(=O)OCC(O)CO` (stereo not drawn) [1oleoyl_rac_GL], the LC retention time was 8.8 min.

As to `CCCCC=CCCCCCCCC(=O)O` [MiristoleicAcid], the LC retention time was 6.6 min.

Turning to `CCC(CCC(C)C1CCC2C3CC=C4CC(OC5OC(CO)C(O)C(O)C5O)CCC4(C)C3CCC12C)C(C)C` (centres undefined) [betaSitosterolglucoside], the LC retention time is 12.6 min.

`NC(CF)(C(=O)O)C(O)CCc1ccccc1` (centres undefined) [T-LCA]: the LC retention time was 2 min.

On to `CC(C)C(C)C=CC(C)C1CCC2C3=CC=C4CC(O)CCC4(C)C3CCC21C` (centres undefined) [ergosterol], for which the LC retention time was 14.2 min.

`CCCCCC=CCC=CCCCCCCCC(=O)OCC(O)CO` (racemic) [1linoleoyl-rac-GL]: the LC retention time is 7.6 min.

For `CC(C)=CCCC(C)C1CCC2C3CC=C4CC(O)CCC4(C)C3CCC12C` (centres undefined) [desmosterol], the LC retention time was 13.8 min.

Take `CC(C)=CCCC(C)C1CCC2(C)C3=C(CCC12C)C1(C)CCC(O)C(C)(C)C1CC3` (centres undefined) [lanosterol]: the LC retention time is 15 min.

In the case of `CC(C)CCCC(C)C1CCC2C3CC4OC45CC(O)CCC5(C)C3CCC12C` (centres undefined) [Chol_Epoxide], the LC retention time was 12.8 min.

For `CC1CCC2(CO)CCC3(C)C(=CCC4C5(C)CCC(O)C(C)(C)C5CCC43C)C2C1C` (centres undefined) [uvaol], the LC retention time was 7.6 min.

Turning to `CC(CCC(=O)NCCS(=O)(=O)O)C1CCC2C3CCC4CC(O)CCC4(C)C3CC(O)C12C` (centres undefined) [T-DCA], the LC retention time was 1.6 min.

On to `CCCCCCCCCCCCCCCCCC(=O)O` [StearicAcid], for which the LC retention time was 12 min.

With `CCCCCC=CCC=CCCCCCCCC(=O)OCC(COC(=O)CCCCCCCC=CCC=CCCCCC)OC(=O)CCCCCCCC=CCC=CCCCCC` (centres undefined) [Glyceryltrilinoleate], the LC retention time was 23.6 min.

With `CCCCCCCCCCCCCC(=O)O` [MirysticAcid], the LC retention time was 8 min.

On to `CCCCCCCCC=CCCCCCCCC(=O)OC(CC(=O)[O-])C[N+](C)(C)C` (centres undefined) [Oleoyl-CAR], for which the LC retention time was 5.8 min.

As for `CC(C)CCCC(C)C1CCC2C3CCC4CCCCC4(C)C3CCC12C` (centres undefined) [5alfa-colestane], the LC retention time was 9.2 min.

`CCCCCCCCCCCCCCCCC(=O)O` [margaric acid]: the LC retention time is 11 min.

Turning to `C=C(C)C1CCC2(C)CCC3(C)C(CCC4C5(C)CCC(O)C(C)(C)C5CCC43C)C12` (centres undefined) [lupeol], the LC retention time is 15.2 min.

`CC(C)C(C)C=CC(C)C1CCC2C3CC=C4CC(O)CCC4(C)C3CCC12C` (centres undefined) [brassicasterol]: the LC retention time is 15.1 min.

For the compound `CCC=CCC=CCC=CCC=CCC=CCC=CCCC(=O)O` [DocosahexaenoicAcid], the LC retention time is 8.4 min.

Take `CCCCCCC=CCCCCCCCC(=O)OCC(O)CO` (racemic) [1monopalmitoleoyl-rac-GL]: the LC retention time is 7 min.

As to `CCCCCCCCCCCCCC=CC(O)C(CO)NC(=O)CCCCCCCCCCCCCCCCC` (centres undefined) [CER_893], the LC retention time was 19.4 min.

For `CC(CCC(=O)NCC(=O)O)C1CCC2C3CCC4CC(O)CCC4(C)C3CCC12C` (centres undefined) [G-LCA], the LC retention time was 2.9 min.

As for `CCCCCCCCC=CCCCCCCCC(=O)OCC(COP(=O)(O)OCC(O)CO)OC(=O)CCCCCCCC=CCCCCCCCC` (centres undefined) [1,2dioleoyl_GLP_Na], the LC retention time was 15.7 min.

Take `CCCCC/C=C\C/C=C\CCCCCCCC(=O)O` [linoleic acid]: the LC retention time was 8.9 min.

Regarding `CC(=O)C1CCC2C3CCC4=CC(=O)CCC4(C)C3CCC12C` (centres undefined) [Progesterone], the LC retention time is 2.7 min.

Take `CC(C)C(C)CCC(C)C1CCC2C3CC=C4CC(O)CCC4(C)C3CCC12C` (centres undefined) [campesterol]: the LC retention time is 16 min.

Consider `CCCCCCCCC=CCCCCCCCC(=O)OCC(COP(=O)([O-])OCC[N+](C)(C)C)OC(=O)CCCCCCCC=CCCCCCCCC` (centres undefined) [1,2dioleoyl_PC], for which the LC retention time was 17 min.

Consider `CCCCCCCCC=CCCCCCCCC(=O)OCC(COC(=O)CCCCCCCC=CCCCCCCCC)OC(=O)CCCCCCCC=CCCCCCCCC` (centres undefined) [glyceryltrioleate], for which the LC retention time was 24.2 min.

For the compound `CC(CCC(=O)O)C1CCC2C3C(O)CC4CC(O)CCC4(C)C3CC(O)C12C` (centres undefined) [CA], the LC retention time was 2.2 min.

Consider `CCC=CCC=CCC=CCCCCCCCC(=O)O` [linolenic acid], for which the LC retention time was 7.8 min.

In the case of `CCCCCCC=CCCCCCCCC(=O)O` [palmitoleic_acid], the LC retention time was 8.4 min.

Take `CC(CCC(=O)NCC(=O)O)C1CCC2C3C(O)CC4CC(O)CCC4(C)C3CC(O)C12C` (centres undefined) [G-CA]: the LC retention time is 1.6 min.

As for `CC(CCC(=O)O)C1CCC2C3CCC4CC(O)CCC4(C)C3CC(O)C12C` (centres undefined) [DCA], the LC retention time is 3.5 min.

Consider `NC(COP(=O)(O)O)C(=O)O` (centres undefined) [PS], for which the LC retention time was 14.9 min.

On to `CC(CCC(=O)O)C1CCC2C3CCC4CC(O)CCC4(C)C3CCC12C` (centres undefined) [LCA], for which the LC retention time was 5.6 min.

For the compound `CC(C)CCCC(C)C1CCC2C3CCC4CC(O)CCC4(C)C3CCC12C` (centres undefined) [Cholestanol], the LC retention time is 11.3 min.

Turning to `CCCCCCCCCCCCCC=CC(O)C(N)CO` [D-sphingosine], the LC retention time is 4.3 min.

Consider `CCCCCC=CCC=CCCCCCCCC(=O)OCC(COP(=O)(O)OCC[N+](C)(C)C)OC(=O)CCCCCCCC=CCC=CCCCCC` (centres undefined) [1,2dilinoleoyl_PC], for which the LC retention time was 14.7 min.

For the compound `CCCCCCCCC=CCCCCCCCC(=O)OCC(COP(=O)(O)OCCN)OC(=O)CCCCCCCC=CCCCCCCCC` (centres undefined) [1,2dioleoyl_PE], the LC retention time was 17.4 min.

For the compound `CCCCCCCCCCCCCCCC(=O)OCC(O)COP(=O)([O-])OCC[N+](C)(C)C` (centres undefined) [1-palmitoyl-sn-glycero-3PC], the LC retention time was 5.9 min.

Turning to `CCCCCCC=CCCCCCCCCCC(=O)O` [cis-vaccenic_acid], the LC retention time was 10.3 min.

For `CC(CCC(=O)O)C1CCC2C3CC(O)C4CC(O)CCC4(C)C3CCC12C` (centres undefined) [HDCA], the LC retention time was 2.1 min.

As to `CC(CCC(=O)NCC(=O)O)C1CCC2C3CCC4CC(O)CCC4(C)C3CC(O)C12C` (centres undefined) [G-DCA], the LC retention time is 2.1 min.

With `CCCCCCCCCCCCCCCC(=O)OCC(COC(=O)CCCCCCCCCCCCCCC)OC(=O)CCCCCCCCCCCCCCC` [glyceryltripalmitate], the LC retention time was 24.2 min.

On to `CCCCCCCC/C=C\CCCCCCCCCC(=O)O` [cis-11-eicosenoic acid], for which the LC retention time was 12.2 min.

For `CCCCCCCCC=CCCCCCCCCCCCC(=O)O` [erucic acid], the LC retention time is 14 min.

`CCCCCCCCCCCCCCCCCC(=O)OCC(COC(=O)CCCCCCCCCCCCCCCCC)OC(=O)CCCCCCCCCCCCCCCCC` [glyceryltristearate]: the LC retention time was 24.9 min.

With `CC(C)CCCC(C)C1CCC2C3CC=C4CC(O)CCC4(C)C3CCC12C` (centres undefined) [CHOLESTEROL], the LC retention time was 15.3 min.

On to `CCCCCCCCCCCCCCCCCCCC(=O)O` [arachidic acid], for which the LC retention time was 13.9 min.

With `CCCCCCC=CCCCCCCCC(=O)OCC(COC(=O)CCCCCCCC=CCCCCCC)OC(=O)CCCCCCCC=CCCCCCC` (centres undefined) [glyceryltripalmitoleate], the LC retention time is 24.2 min.
